Assays:
osteoclasts (OCs) [1] = experiment: OC survival assay (number of OCs after 24-hour incubation); type: cell-based; details: number of OCs as % of DMSO control
Text: FIGS. 5A-5H: Inhibition of bone resorption by an inhibitor of Rac1 activation by Dock5. (FIG. 5A) Principle of the yeast exchange assay used to identify inhibitors of Dock5 exchange activity. Wild type Rac1 is fused to LexA DNA binding domain (LexA) and its effector Kinectin (Kin) to GAL4 activation domain (GAD). Expression of Dock5-DHR2 activates Rac1, which binds to kinectin, leading to the expression of his3 and then yeast […] for histidine. Inhibitors of Dock5-DHR2 revert Rac1 activation. (FIG. 5B) Growth curves of yeasts expressing Rac1 and Kinectin with (open triangles) and without (dots) Dock5-DHR2, in medium complemented (plain lines) or not (dotted lines) with histidine. […] (FIG. 5F) Number of OCs (OC) after a 24-hour incubation with the indicated concentrations of C21, expressed as a % of DMSO control (0 μM C21). […]
Preparations were mounted in Mowiol 40-88 (Sigma) and imaged with Zeiss Axioimager Z2 microscope with Coolsnap HQ2 camera for fluorescence and Coolsnap color Cf camera using Zeiss 40× PLAN-NEOFLUAR 1.3 oil DIC or Zeiss 20× PLAN-APOCHROMAT 0.8 or Zeiss 10× EC PLAN-NEOFLUAR 0.3. […] OC circularity was measured using ImageJ. OCs were counted manually in 96-well plates stained to reveal DNA and TRAP activity, except in FIG. 5F where they were counted automatically using a Cellomics Arrayscan VTI (Thermo Scientific). […]

osteoclasts (OCs) [2] = experiment: Resorption of calcium-phosphate matrices by OCs; type: cell-based, mouse; details: 25 μM C21 (not shown)
Experimental: BMMs were isolated from long bones of 4- to 8-week-old animals as described (16) and OCs obtained by culturing BMMs with RANKL (100 ng/ml) and M-CSF (10 ng/ml) (Peprotech) for 5 days. RAW264.7 cells were grown for 5 days with RANKL (50 ng/ml) to obtain OCs. For resorption, OCs were differentiated in multiwell chambers or on coverslips coated with calcium phosphate (Osteologic Biocoat, BD Bioscience) or in 96-well plates containing a bovine bone slice (IDS Nordic Bioscience). Mesenchymal stem cells (MSCs) were isolated from mouse bone marrow and grown as described (18).
OCs in multiwell Osteologic Biocoat were fixed at day 7 of differentiation and calciumphosphate was stained with von Kossa as described (BRAZIER et al, 2009, see above). The entire well surface was imaged using a Zeiss AxioimagerZ1 microscope. Well image was reconstituted and resorbed areas were measured using MetaMorph 7.0 software (Molecular Devices). For bone resorption assays, OCs were derived from BMMs in 96-well plates containing bovine bone slices. At day 5 of differentiation, medium was changed with fresh medium. After 2 days, CTx concentrations were measured using Crosslap (IDS Nordic Bioscience). […]

osteoclasts (OCs) [3] = experiment: TRAP staining of OCs to ascertain absence of toxicity; type: cell-based; details: 25 μM C21 vs DMSO (not shown)
Text: OCs were fixed and stained for DNA, actin or vinculin or TRAP as described (16,19).
To confirm the essential role of Rac1 activation by Dock5 in the resorption process, it was sought for a chemical inhibitor of Dock5 exchange activity active in cell cultures. The inventors therefore took advantage of a yeast-based assay that they have developed (BLANGY et al., Identification of TRIO-GEFD1 chemical inhibitors using the yeast exchange assay, 2006, Biol Cell 98(9):511-22 and BOUQUIER et al. A cell active chemical GEF inhibitor selectively targets the Trio/RhoG/Rac1 signaling pathway, 2009, Chem Biol 16(6):657-66.). They constructed a yeast strain where Rac1 activation by Dock5 DHR2 induces the expression of the his3 reporter gene (FIG. 5A), which leads to faster yeast growth in Histidine deprived medium (FIG. 5B). A library of 2,640 heterocyclic commercial chemical compounds as described previously was screened (BOUQUIER et al., see above) for molecules able to inhibit growth of Dock5 DHR2-expressing yeasts in Histidine deprived medium without affecting growth in Histidine complemented medium. C21: N-(3,5-dichlorophenyl)benzenesulfonamide was then identified (FIG. 5C). […] In parallel, control OCs grown in the presence of DMSO or 25 μM C21 were stained for TRAP to ascertain C21 was not toxic (not shown).

B16F10 melanoma cells = experiment: Bone metastasis model, B16F10 melanoma cells expressing luciferase in C57B1/6 mice; type: in vivo, mouse; details: 15 mg/d/kg intraperitoneal every day for 12 days; measured at days 7, 10 and 12
Text: The metastatic tumor cells in the bone matrix produce factors that directly or indirectly stimulate osteoclast differentiation and bone resorbing activity. In return, by resorbing it, the osteoclasts liberate growth factors embedded within the bone matrix that will stimulate the proliferation of metastatic cells. […] C21 being an efficient inhibitor of bone resorption, it was further assayed for its ability to slow down metastatic cell proliferation within the bone marrow. B16-F10 cells are derived from a C57B1/6 mouse melanoma and have a strong tropism for the bone. They are classically used as a model for bone metastases.
19 C57B1/6 mice received an injection of 10^5 B16F10 melanoma cells expressing luciferase in the left ventricle, 9 mice received the C21 compound (test group), 15 mg/d/kg solubilized in 100 μl of 5% EtOH and 4% solutol, every days for 12 days, as an intraperitoneal injection, and the other 10 mice (control group) received 100 μl of 5% ethanol/4% solutol vehicle solution.
The proliferation of B16F10 cells was followed by their bioluminescence, measured at days 7, 10 and 12 after injection of the cells (FIG. 20).

O=S(=O)(Nc1cc(Cl)cc(Cl)c1)c1ccccc1 [C21, N-(3,5-dichlorophenyl)benzenesulfonamide]
Concentrations provoking OC death (osteoclasts (OCs) [1]): above 25 μM
Resorption of calcium-phosphate matrices (osteoclasts (OCs) [2]): efficiently inhibits
Toxicity to OCs by TRAP staining (osteoclasts (OCs) [3]): not toxic
Proliferation of B16F10 cells, bioluminescence in the tibia (B16F10 melanoma cells): markedly slowed down

— patent US8940798B2, “Compounds useful for treating and/or preventing disease-associated bone loss” (Centre National de al Recherche Scientifique (CNRS), priority 2011, dated 2015)
